Data published in patent US20230339900A1, “CASEIN KINASE 1 DELTA MODULATORS” (Janssen Pharmaceutica NV, priority 2020, published 2023).
pIC50: −log10 of the molar value.

Tests used:
[1] = target: human CSNK1D tagged with nanoluciferase (Homo sapiens (Human), UniProt P48730); assay: Whole Cell nBRET CSNK1D Binding Assay; details: living CHO cells stably expressing human CSNK1D-nanoluciferase; NanoBret tracer 130 nM; 2 hours 37° C.; read-out: CSNK1D BRET IC50
Description: This cellular binding assay uses a bioluminescence resonance energy transfer to measure human CSNK1D binding activity in living Chinese Hamster Ovary (CHO) cells that are stably expressing human CSNK1D tagged with nanoluciferase. The cells were grown to confluency in growth media (DMEM:F12, 50 u/mLPen/Strep, […] glutamine, and 0.6 mg/mL G418) in 10 cm^2 dishes. Cells were seeded onto white, opaque 384-well plates (Corning, cat #3704) at a density of 8,000 cells/well in serum-free OptiMEM and left to incubated overnight at 37° C., […]. The next day, test compounds were added in a dose response to the plate followed by a NanoBret tracer (130 nM). The plate is mixed on an orbital shaker for 30 seconds, then placed in a 37° C. incubator for 2 hours. NanoBret Nano-Glo Substrate solution (20 μL) is added to all wells and incubated for 3 minutes at room temperature. Donor (450 nm) and acceptor (630 nm) emissions are then measured within 10 minutes using a ClarioStar plate reader. The data is used to calculate millibret units, defined as (E630/E450)*1000. Bret emissions are then graphed against the log of compound concentrations and these graphs are used to determine the IC50 of each compound.

[2] = target: human recombinant GST cleaved CSNK1D (Homo sapiens (Human), UniProt P48730); assay: Purified enzyme assay (ADP-Glo Kinase Assay); type: biochemical; details: 2 nM CSNK1D, peptide substrate 150 μM, ATP 20 μM, 45 minutes room temperature
Chain of human recombinant GST cleaved CSNK1D (P48730 whole entry): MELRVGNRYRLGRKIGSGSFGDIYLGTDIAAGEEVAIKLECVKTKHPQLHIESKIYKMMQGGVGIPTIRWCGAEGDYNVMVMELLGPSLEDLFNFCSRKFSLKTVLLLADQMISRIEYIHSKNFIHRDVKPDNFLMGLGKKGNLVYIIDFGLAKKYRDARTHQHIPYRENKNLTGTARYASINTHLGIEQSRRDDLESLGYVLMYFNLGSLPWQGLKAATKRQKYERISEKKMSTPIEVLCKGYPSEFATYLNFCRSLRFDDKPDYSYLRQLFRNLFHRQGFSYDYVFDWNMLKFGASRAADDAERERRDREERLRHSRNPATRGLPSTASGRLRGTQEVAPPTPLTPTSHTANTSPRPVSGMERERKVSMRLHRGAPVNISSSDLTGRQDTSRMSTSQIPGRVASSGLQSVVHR
Description: In this assay, CSNK1D phosphorylates a substrate peptide PLSRTL-pS-VASLPGL in the presence of ATP. […] This assay monitors CSNK1D kinase activity by measuring the amount of ADP produced in the assay. A substrate mix is prepared by diluting peptide substrate (final concentration 150 μM) with ATP (final concentration 20 μM) in assay buffer (50 mM Tris/HCl pH 7.4+10 mM MgCl2+1 mM DTT+0.1% BSA). The substrate mix is added to each well of a low volume, 384-well, white opaque plate. Test compounds were diluted in HBSS and added in a dose-response to the plate. To start the reaction, 2 nM of constitutively active human recombinant GST cleaved CSNK1D (University of Dundee, clone DU 19064, stored at 0.28 mg/mL in 50 mM Tris/HCl pH 7.5, 150 mM NaCl, 270 mM Sucrose, 0.1 mM EGTA, 0.1% 2-mercaptoethanol, 0.02% Brij-35.1 mM benzamidine, 0.2 mM PMSF) was added to each well and the plate centrifuged for 5 minutes at 1500 rpm. The total volume of each reaction is 5 ul (2 μL of substrate mix, 1 μL of diluted compounds, and 2 μL of human recombinant CSNK1D). The plates are incubated for 45 minutes at room temperature.
ADP was quantified using the ADP-Glo™ Kinase Assay. ADP-Glo Reagent (5 μL) was added to each well. After a 1 hour incubation at room temperature, Kinase Detection Reagent (10 μL) was added to each well and incubated for 30 minutes. Luminescence was measured on the Perkin Elmer Wallac EnVision 2104 Multi-label Reader. The raw data from the Envision is used to calculate percent activity.

Chain of human CSNK1D tagged with nanoluciferase (P48730 whole entry): as above

Row | SMILES | pIC50 [1] | AC50 [2] [nM]
1 | CC(C)Cn1cc(-c2ccnc3[nH]ccc23)c(-c2ccc(F)cn2)n1 [Example 61, 4-[3-(5-Fluoro-2-pyridyl)-1-isobutyl-pyrazol-4-yl]-1H-pyrrolo[2,3-b]pyridine] | 6.94 | 14
2 | CC(C)Cn1cc(-c2ccnc3[nH]ncc23)c(-c2ccc(F)cn2)n1 [Example 62, 4-(3-(5-Fluoropyridin-2-yl)-1-isobutyl-1H-pyrazol-4-yl)-1H-pyrazolo[3,4-b]pyridine] | 6.32 | 8
3 | Cc1cc(-c2cn(CC(C)C)nc2-c2ccc(F)cn2)c2cn[nH]c2n1 [Example 63, 4-(3-(5-Fluoropyridin-2-yl)-1-isobutyl-1H-pyrazol-4-yl)-6-methyl-1H-pyrazolo[3,4-b]pyridine] | 6.60 | 6
4 | COCCn1cc(-c2cc(C)nc3[nH]ncc23)c(-c2ccc(F)cn2)n1 [Example 64, 4-(3-(5-Fluoropyridin-2-yl)-1-(2-methoxyethyl)-1H-pyrazol-4-yl)-6-methyl-1H-pyrazolo[3,4-b]pyridine] | 6.41 | 19
5 | Fc1ccc(-c2nn(C(F)F)cc2-c2ccnc3[nH]ccc23)nc1 [Example 65, 4-[1-(Difluoromethyl)-3-(5-fluoro-2-pyridyl)pyrazol-4-yl]-1H-pyrrolo[2,3-b]pyridine] | 6.77 | 21
6 | Fc1ccc(-c2nn(C(F)F)cc2-c2ccnc3[nH]ncc23)nc1 [Example 66, 4-(1-(Difluoromethyl)-3-(5-fluoropyridin-2-yl)-1H-pyrazol-4-yl)-1H-pyrazolo[3,4-b]pyridine] | 5.97 | 526
7 | Cc1cc(-c2cn(C(F)F)nc2-c2ccc(F)cn2)c2cn[nH]c2n1 [Example 67, 4-(1-(Difluoromethyl)-3-(5-fluoropyridin-2-yl)-1H-pyrazol-4-yl)-6-methyl-1H-pyrazolo[3,4-b]pyridine] | 5.88 | 18
8 | FCCn1cc(-c2ccnc3[nH]ccc23)c(-c2ccc(F)cn2)n1 [Example 68, 4-[1-(2-Fluoroethyl)-3-(5-fluoro-2-pyridyl)pyrazol-4-yl]-1H-pyrrolo[2,3-b]pyridine] | 7.10 | 4
9 | Cc1cc(-c2cn(CC(F)F)nc2-c2ccc(F)cn2)c2cn[nH]c2n1 [Example 69, 4-(1-(2,2-Difluoroethyl)-3-(5-fluoropyridin-2-yl)-1H-pyrazol-4-yl)-6-methyl-1H-pyrazolo[3,4-b]pyridine] | 6.51 | 6
10 | Cc1cc(-c2cn(CC(F)(F)F)nc2-c2ccc(F)cn2)c2cn[nH]c2n1 [Example 70, 4-(3-(5-Fluoropyridin-2-yl)-1-(2,2,2-trifluoroethyl)-1H-pyrazol-4-yl)-6-methyl-1H-pyrazolo[3,4-b]pyridine] | 6.63 | 12
11 | Cc1cc(-c2cn(C3CCC3)nc2-c2ccc(F)cn2)c2cn[nH]c2n1 [Example 71, 4-(1-Cyclobutyl-3-(5-fluoropyridin-2-yl)-1H-pyrazol-4-yl)-6-methyl-1H-pyrazolo[3,4-b]pyridine] | 6.95 | 3
12 | Fc1ccc(-c2nn(C3COC3)cc2-c2ccnc3[nH]ccc23)nc1 [Example 72, 4-[3-(5-Fluoro-2-pyridyl)-1-(oxetan-3-yl)pyrazol-4-yl]-1H-pyrrolo[2,3-b]pyridine] | 6.87 | 8
13 | Cc1cc(-c2cn(C3COC3)nc2-c2ccc(F)cn2)c2cn[nH]c2n1 [Example 73, 4-(3-(5-Fluoropyridin-2-yl)-1-(oxetan-3-yl)-1H-pyrazol-4-yl)-6-methyl-1H-pyrazolo[3,4-b]pyridine] | 6.24 | 20
14 | Cn1cc(-c2ccnc3[nH]cc(Br)c23)c(-c2ccc(F)cn2)n1 [Example 75, 3-Bromo-4-[3-(5-fluoro-2-pyridyl)-1-methyl-pyrazol-4-yl]-1H-pyrrolo[2,3-b]pyridine] | 7.62 | 1
15 | Cn1cc(-c2ccnc3[nH]cc(Cl)c23)c(-c2ccc(F)cn2)n1 [Example 76, 3-Chloro-4-[3-(5-fluoro-2-pyridyl)-1-methyl-pyrazol-4-yl]-1H-pyrrolo[2,3-b]pyridine] | 7.77 | 1
16 | Cn1cc(-c2ccnc3[nH]cc(F)c23)c(-c2ccc(F)cn2)n1 [Example 77, 3-Fluoro-4-[3-(5-fluoro-2-pyridyl)-1-methyl-pyrazol-4-yl]-1H-pyrrolo[2,3-b]pyridine] | 7.28 | 7
17 | Cn1cc(-c2c(F)cnc3[nH]ccc23)c(-c2ccc(F)cn2)n1 [Example 78, 5-Fluoro-4-[3-(5-fluoro-2-pyridyl)-1-methyl-pyrazol-4-yl]-1H-pyrrolo[2,3-b]pyridine] | 7.30 | 4
18 | Cc1cnc2[nH]ccc2c1-c1cn(C)nc1-c1ccc(F)cn1 [Example 79, 4-[3-(5-Fluoro-2-pyridyl)-1-methyl-pyrazol-4-yl]-5-methyl-1H-pyrrolo[2,3-b]pyridine] | 7.28 | 7
19 | Cc1cc(-c2cn(C)nc2-c2ccc(F)cn2)c2cc[nH]c2n1 [Example 80, 4-[3-(5-Fluoro-2-pyridyl)-1-methyl-pyrazol-4-yl]-6-methyl-1H-pyrrolo[2,3-b]pyridine] | 7.39 | 1
20 | Cc1cc2c(-c3cn(C)nc3-c3ccc(F)cn3)ccnc2[nH]1 [Example 81, 4-(3-(5-Fluoropyridin-2-yl)-1-methyl-1H-pyrazol-4-yl)-2-methyl-1H-pyrrolo[2,3-b]pyridine] | 5.84 | 84
21 | Cc1c[nH]c2nccc(-c3cn(C)nc3-c3ccc(F)cn3)c12 [Example 82, 4-[3-(5-Fluoro-2-pyridyl)-1-methyl-pyrazol-4-yl]-3-methyl-1H-pyrrolo[2,3-b]pyridine] | 7.23 | 6
22 | CC(C)c1cc2c(-c3cn(C)nc3-c3ccc(F)cn3)ccnc2[nH]1 [Example 83, 4-(3-(5-Fluoropyridin-2-yl)-1-methyl-1H-pyrazol-4-yl)-2-isopropyl-1H-pyrrolo[2,3-b]pyridine] | 5.80 | 54
23 | Cn1cc(-c2ccnc3[nH]c(C(F)F)cc23)c(-c2ccc(F)cn2)n1 [Example 84, 2-(Difluoromethyl)-4-(3-(5-fluoropyridin-2-yl)-1-methyl-1H-pyrazol-4-yl)-1H-pyrrolo[2,3-b]pyridine] | 6.65 | 23
24 | Cn1cc(-c2ccnc3[nH]c(C(F)(F)F)cc23)c(-c2ccc(F)cn2)n1 [Example 85, 4-(3-(5-Fluoropyridin-2-yl)-1-methyl-1H-pyrazol-4-yl)-2-(trifluoromethyl)-1H-pyrrolo[2,3-b]pyridine] | 6.59 | 22
25 | Cn1cc(-c2ccnc3[nH]cc(C(F)(F)F)c23)c(-c2ccc(F)cn2)n1 [Example 86, 4-(3-(5-Fluoropyridin-2-yl)-1-methyl-1H-pyrazol-4-yl)-3-(trifluoromethyl)-1H-pyrrolo[2,3-b]pyridine] | 5.98 | 48
26 | Cn1cc(-c2c(C(F)(F)F)cnc3[nH]ccc23)c(-c2ccc(F)cn2)n1 [Example 87, 4-[3-(5-Fluoro-2-pyridyl)-1-methyl-pyrazol-4-yl]-5-(trifluoromethyl)-1H-pyrrolo[2,3-b]pyridine] | 7.03 | 4
27 | Cn1cc(-c2ccnc3[nH]cc(C#N)c23)c(-c2ccc(F)cn2)n1 [Example 88, 4-[3-(5-Fluoro-2-pyridyl)-1-methyl-pyrazol-4-yl]-1H-pyrrolo[2,3-b]pyridine-3-carbonitrile] | 6.84 | 16
